Source: ChEMBL document CHEMBL4483862, “Open-source discovery of chemical leads for next-generation chemoprotective antimalarials” (2018)

System: Plasmodium berghei
Assay: Luciferase/luciferin-expressing antifolate-resistant parasites were used to infect a culture of HepG2 cells that were pre-incubated with compounds. Infected hepatocytes emit light due to the luciferase reaction. Assay results are presented as the percent inhibition of light emission compared to control. […]
Assay type: functional
Settings: sporozoite; for IC90: read-out: LUCIFERASE INFECTION ASSAY - IC90
[1] = read-out: LUCIFERASE INFECTION ASSAY - IC50

COc1ccc(NC(C)=O)cc1Nc1nc(C(F)(F)F)nc2ccccc12
IC50 (HEPG2TOX_HILL_SLOPE 9.23, HEPG2TOX_R_SQUARED 0.863, PBLUC_HILL_SLOPE 3.13, PBLUC_R_SQUARED 0.379, read-out: LUCIFERASE INFECTION ASSAY - IC50): 6.22 µM | IC90: > 10 µM

COc1ccc(OC)c(CCNc2nc3cnc(-c4cc(OC)c(OC)c(OC)c4)cc3n2C)c1
IC50 (PBLUC_HILL_SLOPE 3.05, PBLUC_R_SQUARED 0.174, read-out: LUCIFERASE INFECTION ASSAY - IC50): 7.61 µM | IC90: > 10 µM

COc1ccc(NC(=O)c2ccc(C)c(F)c2)cc1OCc1cccnc1
IC50 [1]: 6.13 µM | IC90: > 10 µM

COC(=O)c1cc(CSc2nc3ccccc3c(=O)n2-c2ccc(OC)cc2)oc1C
IC50 (PBLUC_HILL_SLOPE 8.32, PBLUC_R_SQUARED 0.0862, read-out: LUCIFERASE INFECTION ASSAY - IC50): > 10 µM | IC90: > 10 µM

O=[N+]([O-])c1ccc(O)c(CNc2ncnc3sc4c(c23)CCCC4)c1
IC50 (HEPG2TOX_HILL_SLOPE 12, HEPG2TOX_R_SQUARED 0.784, PBLUC_HILL_SLOPE 5.09, 13.1, PBLUC_R_SQUARED 0.860, 0.272, read-out: LUCIFERASE INFECTION ASSAY - IC50): 7.21 µM | IC90: 8.25 µM

CN(C)CCNC(=O)c1ccc(-c2cc(-c3cc(F)c(F)c(F)c3)cnc2N)cc1
IC50 (PBLUC_HILL_SLOPE 12.1, PBLUC_R_SQUARED 0.329, read-out: LUCIFERASE INFECTION ASSAY - IC50): 7.43 µM | IC90: > 7.96 µM

c1coc(-c2cn3c(-c4ccsc4)cnc3cn2)c1
IC50 (FFLUC_HILL_SLOPE 11.6, FFLUC_R_SQUARED 0.514, read-out: LUCIFERASE INFECTION ASSAY - IC50): > 12.3 µM | IC90: > 12.3 µM

Oc1ccc(-c2cn3c(-c4ccsc4)cnc3cn2)cc1
IC50 [1]: 10.6 µM | IC90: > 11.2 µM

COc1ccc(CN2C(=O)N(C)C3(CCN(Cc4ccc(N5CCCC5)cc4)CC3)C2=O)cc1
IC50 (HEPG2TOX_HILL_SLOPE 9.02, HEPG2TOX_R_SQUARED 0.802, PBLUC_HILL_SLOPE 4.22, PBLUC_R_SQUARED 0.106, read-out: LUCIFERASE INFECTION ASSAY - IC50): 5.16 µM | IC90: > 7.13 µM

CC(c1ccc(-c2ccccc2)c(F)c1)c1nn2c(-c3ccco3)nnc2s1 (stereo unspecified)
IC50 [1]: 0.85 µM | IC90: 2.45 µM

CO/N=C/NC(=O)/C(C#N)=C/N(C)C
IC50 (PBLUC_HILL_SLOPE 13.3, PBLUC_R_SQUARED 0.155, read-out: LUCIFERASE INFECTION ASSAY - IC50): 14.6 µM | IC90: > 16.8 µM

CCOc1c(Br)cc(C2NCC(c3cccc(OC)c3OC)c3c2[nH]c2ccccc32)cc1OC (stereo unspecified)
IC50 (FFLUC_HILL_SLOPE 3.42, FFLUC_R_SQUARED 0.537, read-out: LUCIFERASE INFECTION ASSAY - IC50): > 10 µM | IC90: > 10 µM

Cc1sc2ncnc(NC(C)c3ccc(S(C)(=O)=O)cc3)c2c1C (stereo unspecified)
IC50 (HEPG2TOX_HILL_SLOPE 5.66, HEPG2TOX_R_SQUARED 0.483, PBLUC_HILL_SLOPE 1.68, PBLUC_R_SQUARED 0.334, read-out: LUCIFERASE INFECTION ASSAY - IC50): 6.13 µM | IC90: > 10 µM

CCCCNC(=O)c1c(NC(=O)c2cccc(Cl)c2Cl)nc2ccccn12
IC50 (PBLUC_HILL_SLOPE 8.82, PBLUC_R_SQUARED 0.193, read-out: LUCIFERASE INFECTION ASSAY - IC50): 6.71 µM | IC90: > 8.14 µM

Cc1c(S(=O)(=O)c2ccc(Cl)cc2)csc1C(=O)N(c1ccccc1)[S+](C)[O-] (stereo unspecified)
IC50 (PBLUC_HILL_SLOPE 18.3, PBLUC_R_SQUARED 0.735, read-out: LUCIFERASE INFECTION ASSAY - IC50): 2.41 µM | IC90: 2.72 µM

CC(c1nc2ccccc2s1)N(C)c1ncnc2sc3c(c12)CCC3 (stereo unspecified)
IC50 (FFLUC_HILL_SLOPE 2.52, FFLUC_R_SQUARED 0.413, HEPG2TOX_HILL_SLOPE 5.64, HEPG2TOX_R_SQUARED 0.118, PBLUC_HILL_SLOPE 2.14, PBLUC_R_SQUARED 0.426, read-out: LUCIFERASE INFECTION ASSAY - IC50): > 10 µM | IC90: > 10 µM

CC(C)(C)c1cc(C(=O)/C(C#N)=N/Nc2cccc(Cl)c2)no1
IC50 (HEPG2TOX_HILL_SLOPE 1.6, HEPG2TOX_R_SQUARED 0.978, PBLUC_HILL_SLOPE 25.6, PBLUC_R_SQUARED 0.306, read-out: LUCIFERASE INFECTION ASSAY - IC50): 8.85 µM | IC90: 9.64 µM

CC(NC(=S)N/N=C/c1cc(Cl)cc(Cl)c1O)c1ccccc1 (stereo unspecified)
IC50 (PBLUC_HILL_SLOPE 1.69, PBLUC_R_SQUARED 0.56, read-out: LUCIFERASE INFECTION ASSAY - IC50): 2.31 µM | IC90: 8.46 µM

COc1ccccc1-n1c(SCCn2c([N+](=O)[O-])cnc2C)nc2sc3c(c2c1=O)CCCC3
IC50 (HEPG2TOX_HILL_SLOPE 0.275, HEPG2TOX_R_SQUARED 0.775, PBLUC_HILL_SLOPE 12.8, PBLUC_R_SQUARED 0.595, read-out: LUCIFERASE INFECTION ASSAY - IC50): 3.38 µM | IC90: 4.01 µM

CCN(CC)S(=O)(=O)c1ccc(/C=C/C(=O)N2CC=C(c3ccccc3)CC2)cc1
IC50 [1]: > 10 µM | IC90: > 10 µM

Fc1cccc(Cl)c1CSc1ccc(Cl)c(Cl)c1
IC50 (FFLUC_HILL_SLOPE 1.69, FFLUC_R_SQUARED 0.519, read-out: LUCIFERASE INFECTION ASSAY - IC50): > 10.3 µM | IC90: > 10.3 µM

Cc1ccc(CNCc2nc(NCc3ccc(C)cc3)c3c(C)c(C)sc3n2)cc1
IC50 (FFLUC_HILL_SLOPE 14.5, FFLUC_R_SQUARED 0.473, HEPG2TOX_HILL_SLOPE 357, HEPG2TOX_R_SQUARED 0.506, PBLUC_HILL_SLOPE 12.5, PBLUC_R_SQUARED 0.0149, read-out: LUCIFERASE INFECTION ASSAY - IC50): 3.54 µM | IC90: 4.22 µM

CCNc1ccc(S(=O)(=O)C(F)(F)F)cc1NC(=O)c1ccccc1NS(=O)(=O)c1ccc(F)cc1
IC50 [1]: 1.44 µM | IC90: > 10 µM

O=c1c2ccsc2ncn1CCS(=O)(=O)N1CCN(C(c2ccc(F)cc2)c2ccc(F)cc2)CC1
IC50 (FFLUC_HILL_SLOPE 1.84, FFLUC_R_SQUARED 0.406, PBLUC_HILL_SLOPE 0.263, PBLUC_R_SQUARED 0.514, read-out: LUCIFERASE INFECTION ASSAY - IC50): 1.49 µM | IC90: > 10 µM

Cc1ccc(Cn2c(NCc3cccs3)nc3ccccc32)cc1
IC50 (PBLUC_HILL_SLOPE 9.45, PBLUC_R_SQUARED 0.348, read-out: LUCIFERASE INFECTION ASSAY - IC50): 8.16 µM | IC90: > 9.9 µM

N#C/C(=C\c1ccc(OCc2ccccc2)c(OCc2ccccc2)c1)c1nnc2n1CCCCC2
IC50 [1]: > 10 µM | IC90: > 10 µM

NNC(=S)c1cc(Cl)cc(Cl)c1
IC50 (PBLUC_HILL_SLOPE 7.79, PBLUC_R_SQUARED 0.6, read-out: LUCIFERASE INFECTION ASSAY - IC50): 5.82 µM | IC90: 7.72 µM

O=C(NNc1ccc(I)cc1)c1cc(Cl)cc(Cl)c1
IC50 (HEPG2TOX_HILL_SLOPE 2.56, HEPG2TOX_R_SQUARED 0.673, PBLUC_HILL_SLOPE 20.4, PBLUC_R_SQUARED 0.213, read-out: LUCIFERASE INFECTION ASSAY - IC50): 2.56 µM | IC90: 2.86 µM

COc1nc2c(c(-c3ccc(SC)cc3)c1C#N)Cc1ccccc1-2
IC50 (HEPG2TOX_HILL_SLOPE 1.73, HEPG2TOX_R_SQUARED 0.894, PBLUC_HILL_SLOPE 2.49, PBLUC_R_SQUARED 0.21, read-out: LUCIFERASE INFECTION ASSAY - IC50): 5.33 µM | IC90: > 9.58 µM

Cc1ccc2nc(-c3ccc(NC(=O)COC(=O)c4oc5ccccc5c4COC(C)C)cc3)sc2c1
IC50 (FFLUC_HILL_SLOPE 11.7, FFLUC_R_SQUARED 0.82, PBLUC_HILL_SLOPE 2.16, PBLUC_R_SQUARED 0.259, read-out: LUCIFERASE INFECTION ASSAY - IC50): 9.03 µM | IC90: > 10 µM

C/N=c1\scc(-c2ccc(OC(F)F)cc2)n1/N=C/c1ccccc1Br
IC50 (HEPG2TOX_HILL_SLOPE 2.13, HEPG2TOX_R_SQUARED 0.347, PBLUC_HILL_SLOPE 0.898, PBLUC_R_SQUARED 0.747, read-out: LUCIFERASE INFECTION ASSAY - IC50): 0.283 µM | IC90: 3.26 µM

FC(F)(F)Oc1ccc(-c2cnc3ccc(NCc4ccccn4)nn23)cc1
IC50 (HEPG2TOX_HILL_SLOPE 11.3, HEPG2TOX_R_SQUARED 0.834, PBLUC_HILL_SLOPE 11.1, PBLUC_R_SQUARED 0.439, read-out: LUCIFERASE INFECTION ASSAY - IC50): 1.02 µM | IC90: 1.24 µM

Cc1ccc(C(C)C)cc1OCC(=O)N1CCC(C(=O)Nc2ccccc2O)CC1
IC50 (PBLUC_HILL_SLOPE 135, PBLUC_R_SQUARED 0.614, read-out: LUCIFERASE INFECTION ASSAY - IC50): 4.51 µM | IC90: 4.58 µM

Clc1cccc(CNc2ncnc3sccc23)c1
IC50 (HEPG2TOX_HILL_SLOPE 2.22, HEPG2TOX_R_SQUARED 0.937, PBLUC_HILL_SLOPE 2.28, PBLUC_R_SQUARED 0.461, read-out: LUCIFERASE INFECTION ASSAY - IC50): 3.76 µM | IC90: 9.83 µM

O=C1c2ccccc2C(=Cc2ccsc2)c2ccccc21
IC50 (PBLUC_HILL_SLOPE 16.4, 0.310, PBLUC_R_SQUARED 0.161, 0.532, read-out: LUCIFERASE INFECTION ASSAY - IC50): 4.9 µM | IC90: > 10 µM

C=CCNc1sc(C(=O)/C(C#N)=C2\Nc3ccccc3S2)c(N)c1C(=O)Nc1ccc(Cl)cc1
IC50 (FFLUC_HILL_SLOPE 4, FFLUC_R_SQUARED 0.164, HEPG2TOX_HILL_SLOPE 6.65, HEPG2TOX_R_SQUARED 0.57, PBLUC_HILL_SLOPE 11, PBLUC_R_SQUARED 0.696, read-out: LUCIFERASE INFECTION ASSAY - IC50): 3.38 µM | IC90: 4.13 µM

CN(C)CCNC(=O)c1ccc(-c2cnc3c(Nc4ccc(Oc5ccccc5)cc4)nccn23)cc1
IC50 [1]: > 6.7 µM | IC90: > 6.7 µM

O=C(NCc1ccccc1)C1=CN2CCN(Cc3cccc(Cl)c3)C(=O)N=C2O1
IC50 (FFLUC_HILL_SLOPE 9.9, FFLUC_R_SQUARED 0.0641, read-out: LUCIFERASE INFECTION ASSAY - IC50): > 10 µM | IC90: > 10 µM
